Test system: skin
Conditions: for Rating: 5% sample applied to skin, scale of 1 to 5, 1 being poor and 5 being best
Description: The effect of moisturization can be measured by the appearance of the skin when treated. Untreated skin that is in need of moisturization is rough, scaly and dry looking under the dissection microscope. The application of the moisturization solution to the skin and its effect upon minimizing roughness, scaling and dry appearance is a good measure of moisturization. We performed such an evaluation and rated the performance of a scale of 1 to 5.1 being poor and 5 being best.

With C[N+](C)(C)CCO [Choline] the Rating was 4.

For C[N+](C)(CCO)CC(O)CO.[Cl-] (stereo not shown) [Example 3], the Rating was 5 and the “moisturization effect in words” value (applied to rough dry skin) was “very effective moisturization agent”.

OCC(O)CO [Glycerin] showed a Rating of 2.

Reference: patent US6869977B1, “Skin moisturization compound” (Colonial Chemical Inc., priority 2004, dated 2005)
